The target of this assay is human A2A adenosine receptor (Homo sapiens (Human), UniProt P29274). The assay can be described thus: A2A binding affinity using radioligand binding, Method (A). As to conditions: Method (A): filtration radioligand binding, [3H] SCH58261, membranes expressing human A2A. The text has this: Method (A) describes the procedure used to measure A2A binding affinity using radioligand binding. Method (B) describes the procedure used to measure A2A binding affinity using SPA technology. The method used to measure A2B binding affinity is also described below. The method used to determine the A2A IC50 value reported for each compound in the table is indicated next to the reported value. The A2B IC50 value measured using the A2B binding affinity assay is shown in the table next to the compound under the corresponding A2A value.
Chain of human A2A adenosine receptor (P29274 whole entry): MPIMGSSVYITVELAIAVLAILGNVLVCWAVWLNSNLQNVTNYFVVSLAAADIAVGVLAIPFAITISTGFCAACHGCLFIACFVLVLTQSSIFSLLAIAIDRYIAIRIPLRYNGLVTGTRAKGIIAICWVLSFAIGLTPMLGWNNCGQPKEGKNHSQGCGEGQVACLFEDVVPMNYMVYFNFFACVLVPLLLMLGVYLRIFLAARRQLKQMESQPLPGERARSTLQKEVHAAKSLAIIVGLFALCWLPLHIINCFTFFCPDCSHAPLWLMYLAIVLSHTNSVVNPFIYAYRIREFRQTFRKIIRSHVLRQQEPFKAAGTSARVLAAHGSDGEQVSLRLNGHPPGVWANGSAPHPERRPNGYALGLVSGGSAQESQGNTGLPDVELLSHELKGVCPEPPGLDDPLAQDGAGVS
The A2A receptor affinity binding assay measured the amount of binding of a tritiated ligand with high affinity for the A2A adenosine receptor to membranes made from HEK293 or CHO cells recombinantly expressing the human A2A adenosine receptor, in the presence of varying concentrations of a compound of the invention. The data were generated using either filtration binding or a homogenous scintillation proximity assay (SPA).
Method (A): Measurement of A2A Binding Affinity Using Radioligand Binding
148 μL (5 μg/mL) membranes (Perkin Elmer, Cat. No. RBHA2aM400UA) and 2 μL compounds of the invention to be tested (test compound) were transferred to individual wells of a 96-well polypropylene assay plate and incubated for 15 to 30 min at room temperature. [^3H] SCH58261 ((7-(2-phenylethyl)-5-amino-2-(2-furyl)-pyrazolo-[4,3-e]-1,2,4-triazolo[1,5-c]pyrimidine)) was diluted in assay buffer (50 mM Tris pH 7.4, 10 mM MgCl2, 0.005% Tween20) to a concentration of 4 nM and 50 μL transferred to each well of the assay plate. To define total and non-specific binding, wells containing 1% DMSO and 1 μM ZM241385 (Tocris Bioscience, Cat. No. 1036) respectively, were also included. The assay plate was incubated at room temperature for 60 min with agitation. Using a FilterMate Harvester® (Perkin Elmer), the contents of the assay plate were filtered through a UniFilter-96® PEI coated plate (Perkin Elmer Cat. No. 6005274 or 6005277). Filtering was achieved by aspirating the contents of the assay plate for 5 sec, then washing and aspirating the contents three times with ice-cooled wash buffer (50 mM Tris-HCl pH 7.4, 150 mM NaCl) and allowing the vacuum manifold to dry the plate for 30 sec. The filter plate was incubated for at least 1 h at 55° C. and allowed to dry. The bottom of the filter plate was sealed with backing tape. 40 μL Ultima Gold™ (Perkin Elmer, Cat. No. 6013329) was added to each well of the filter plate and the top of the plate was sealed with TopSeal-A PLUS® clear plate seal (Perkin Elmer, Cat. No. 6050185). The plate was incubated for at least 20 min, and then the amount of radioactivity remaining in each well was determined using a TopCount® (Perkin Elmer) scintillation counter. After normalization to total and non-specific binding, the percent effect at each compound concentration was calculated. The plot of percent effect versus the log of compound concentration was analyzed electronically using a 4-parameter logistic fit based on the Levenberg-Marquardt algorithm to generate IC50 values.
As to `COc1cc(F)cc2c1nc(N)n1nc(CCC3CCn4c(cnc4C4(C(F)(F)F)CC4)C3)nc21` (single isomer, unassigned) [Example 12.3A, (S or R)-9-fluoro-7-methoxy-2-(2-(3-(1-(trifluoromethyl)cyclopropyl)-5,6,7,8-tetrahydroimidazo[1,5-a]pyridin-7-yl)ethyl)-[1,2,4]triazolo[1,5-c]quinazolin-5-amine], the IC50 (in general, the point on the concentration scale where inhibition reaches its midpoint) came to 5.7 nM.
The value for `COc1cccc2c1nc(N)n1nc(COC3CCc4c(nnn4C4CC(F)(F)C4)C3)nc21` (single isomer, unassigned) [Example 2.2B, (R or S)-2-(((1-(3,3-difluorocyclobutyl)-4,5,6,7-tetrahydro-1H-benzo[d][1,2,3]triazol-5-yl)oxy)methyl)-7-methoxy-[1,2,4]triazolo[1,5-c]quinazolin-5-amine] was 0.6 nM; that for `COc1cccc2c1nc(N)n1nc(CCS(=N)(=O)C3CC3)nc21` (single isomer, unassigned) [Example 11.1B, (R or S)-(2-(5-amino-7-methoxy-[1,2,4]triazolo[1,5-c]quinazolin-2-yl)ethyl)(cyclopropyl)(imino)-λ^6-sulfanone] was 3.4 nM.
For `COc1cc(F)cc2c1nc(N)n1nc(CCC3(O)CCc4c(nnn4C4CC(F)(F)C4)C3)nc21` (single isomer, unassigned) [Example 14.3B, (R or S)-5-(2-(5-amino-9-fluoro-7-methoxy-[1,2,4]triazolo[1,5-c]quinazolin-2-yl)ethyl)-1-(3,3-difluorocyclobutyl)-4,5,6,7-tetrahydro-1H-benzo[d][1,2,3]triazol-5-ol], the IC50 came out at 3.4 nM.
For the molecule `COc1cccc2c1nc(N)n1nc(CCC3CCc4c(nnn4C4CC(F)(F)C4)C3)nc21` (single isomer, unassigned) [Example 5.3A, (S or R)-2-(2-(1-(3,3-difluorocyclobutyl)-4,5,6,7-tetrahydro-1H-benzo[d][1,2,3]triazol-5-yl)ethyl)-7-methoxy-[1,2,4]triazolo-[1,5-c]quinazolin-5-amine], the IC50 was 0.9 nM.
Turning to `COc1cc(F)cc2c1nc(N)n1nc(CCC3CCc4c(cnn4C(C)C)C3)nc21` (single isomer, unassigned) [Example 7.7B, (R or S)-9-fluoro-2-(2-(1-isopropyl-4,5,6,7-tetrahydro-1H-indazol-5-yl)ethyl)-7-methoxy-[1,2,4]triazolo[1,5-c]quinazolin-5-amine], the IC50 was found to be 2.6 nM.
The value for `COc1cc(F)cc2c1nc(N)n1nc(Cc3cnn(CCCC(C)(C)O)c3)nc21` [Example 16.4, 5-(4-((5-amino-9-fluoro-7-methoxy-[1,2,4]triazolo[1,5-c]quinazolin-2-yl)methyl)-1H-pyrazol-1-yl)-2-methylpentan-2-ol] was 15.3 nM.
As to `COc1cc(F)cc2c1nc(N)n1nc(CCC3CCn4c(cnc4C4CC(F)(F)C4)C3)nc21` (single isomer, unassigned) [Example 7.3A, (S or R)-2-(2-(3-(3,3-difluorocyclobutyl)-5,6,7,8-tetrahydroimidazo-[1,5-a]pyridin-7-yl)ethyl)-9-fluoro-7-methoxy-[1,2,4]triazolo[1,5-c]-quinazolin-5-amine], the IC50 turned out to be 2.8 nM.
In turn, `COc1cccc2c1nc(N)n1nc(CCS(=N)(=O)C3CC3)nc21` (single isomer, unassigned) [Example 11.1A, (S or R)-(2-(5-amino-7-methoxy-[1,2,4]triazolo[1,5-c]quinazolin-2-yl)ethyl)(cyclopropyl)(imino)-26-sulfanone] returned an IC50 of 1.2 nM. Compared with the last molecule, the IC50 is about 2.3-fold lower.
The value for `COc1cccc2c1nc(N)n1nc(CCC3CCc4nn(C(C)C)cc4C3)nc21` (single isomer, unassigned) [Example 7.2B, (R or S)-2-(2-(2-isopropyl-4,5,6,7-tetrahydro-2H-indazol-5-yl)ethyl)-7-methoxy-[1,2,4]triazolo[1,5-c]quinazolin-5-amine] was 2.3 nM.
In turn, `COc1cccc2c1nc(N)n1nc(COC3CCc4c(nnn4C4CC(F)(F)C4)C3)nc21` (single isomer, unassigned) [Example 2.2A, (S or R)-2-(((1-(3,3-difluorocyclobutyl)-4,5,6,7-tetrahydro-1H-benzo[d][1,2,3]triazol-5-yl)oxy)methyl)-7-methoxy-[1,2,4]triazolo[1,5-c]quinazolin-5-amine] registered an IC50 of 3.4 nM.
The value for `COc1cccc2c1nc(N)n1nc(CCC3CCn4c(cnc4C4CC(F)(F)C4)C3)nc21` (single isomer, unassigned) [Example 7.5B, (R or S)-2-(2-(3-(3,3-difluorocyclobutyl)-5,6,7,8-tetrahydroimidazo-[1,5-a]pyridin-7-yl)ethyl)-7-methoxy-[1,2,4]triazolo[1,5-c]-quinazolin-5-amine] was 0.5 nM; that for `COc1cccc2c1nc(N)n1nc(CCC3CCc4c(nnn4C(C)C)C3)nc21` (single isomer, unassigned) [Example 5.2A, (S or R)-2-(2-(1-isopropyl-4,5,6,7-tetrahydro-1H-benzo[d][1,2,3]triazol-5-yl)ethyl)-7-methoxy-[1,2,4]triazolo[1,5-c]quinazolin-5-amine] was 0.7 nM.
The value for `COc1cc(F)cc2c1nc(N)n1nc(CCC3CCc4c(nnn4C4CC(F)(F)C4)C3)nc21` (single isomer, unassigned) [Example 7.6A, (S or R)-2-(2-(1-(3,3-difluorocyclobutyl)-4,5,6,7-tetrahydro-1H-benzo[d][1,2,3]triazol-5-yl)ethyl)-9-fluoro-7-methoxy-[1,2,4]-triazolo[1,5-c]quinazolin-5-amine] was 1 nM.
The value for `Nc1nc2c(F)cc(F)cc2c2nc(CCCS(=O)(=O)C3CC3)nn12` [Example 13.20, 2-(3-(cyclopropylsulfonyl)propyl)-7,9-difluoro-[1,2,4]triazolo[1,5-c]quinazolin-5-amine] was 34.2 nM; that for `COc1cccc2c1nc(N)n1nc(CCS(=O)(=O)C3CC3)nc21` [Example 13.3, 2-(2-(cyclopropylsulfonyl)ethyl)-7-methoxy-[1,2,4]triazolo[1,5-c]quinazolin-5-amine] was 1.6 nM; that for `COc1cccc2c1nc(N)n1nc(CCC3CCc4c(cnn4C(C)C)C3)nc21` (single isomer, unassigned) [Example 7.8B, (R or S)-2-(2-(1-isopropyl-4,5,6,7-tetrahydro-1H-indazol-5-yl)ethyl)-7-methoxy-[1,2,4]triazolo[1,5-c]quinazolin-5-amine] was 2.4 nM.
Molecule `CN=S(=O)(CCc1nc2c3cccc(OC)c3nc(N)n2n1)C1CC1` (single isomer, unassigned) [Example 10.3A, (S or R)-(2-(5-amino-7-methoxy-[1,2,4]triazolo[1,5-c]quinazolin-2-yl)ethyl)(cyclopropyl)(methylimino)-l6-sulfanone] registered an IC50 of 1.4 nM.
The value for `COc1cc(F)cc2c1nc(N)n1nc(Cc3cnn(CCC(C)(C)O)c3)nc21` [Example 16.5, 4-(4-((5-amino-9-fluoro-7-methoxy-[1,2,4]triazolo[1,5-c]-quinazolin-2-yl)methyl)-1H-pyrazol-1-yl)-2-methylbutan-2-ol] was 43.4 nM; that for `COc1ccc2c(c1)nc(N)n1nc(CCS(=O)(=O)C3CC3)nc21` [Example 13.6, 2-(2-(cyclopropylsulfonyl)ethyl)-8-methoxy-[1,2,4]triazolo[1,5-c]quinazolin-5-amine] was 8.2 nM; that for `Nc1nc2c(F)cc(F)cc2c2nc(CCC3CCn4c(cnc4C4CC(F)(F)C4)C3)nn12` (single isomer, unassigned) [Example 7.4A, (S or R)-2-(2-(3-(3,3-difluorocyclobutyl)-5,6,7,8-tetrahydroimidazo-[1,5-a]pyridin-7-yl)ethyl)-7,9-difluoro-[1,2,4]triazolo[1,5-c]-quinazolin-5-amine] was 31.6 nM.
The value for `COc1cc(F)cc2c1nc(N)n1nc(CCC3CCc4c(nnn4C4CC(F)(F)C4)C3)nc21` (single isomer, unassigned) [Example 7.6B, (R or S)-2-(2-(1-(3,3-difluorocyclobutyl)-4,5,6,7-tetrahydro-1H-benzo[d][1,2,3]triazol-5-yl)ethyl)-9-fluoro-7-methoxy-[1,2,4]-triazolo[1,5-c]quinazolin-5-amine] was 4.2 nM.

The values are drawn from US20240076297A1, “ADENOSINE A2A AND A2B RECEPTOR DUAL ANTAGONISTS FOR IMMUNO-ONCOLOGY” (Merck Sharp & Dohme LLC, priority 2020, published 2024).
